Measured values reported in PubChem BioAssay AID1963972 (Molecular Pharmacology Branch, DTP, NCI, 2024).
pIC50: −log10 of the molar value.

Test system: 945468-187-T-J2-PDC spheroids viability
Assay: Anticancer human tumor 945468-187-T-J2-PDC patient-derived rectal carcinoma cell line growth inhibition [PI3K]
Conditions: spheroids with HUVEC and MSC; for pIC50: curve of first compound; for viability, T/C: stronger effect = lower value
Summary of the method: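 Combination activity was assessed by viability in multicellular tumor spheroids carrying HUVEC and MSC components. Agents were tested with PI3K inhibitors from a Cmax-based top dose (or 10 microM) downward in half-log increments.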

[1] = second compound 0.0316 µM, first compound 0.0316 µM
[2] = second compound 0.0316 µM, first compound 0.1 µM
[3] = second compound 0.0316 µM, first compound 0.316 µM
[4] = second compound 0.0316 µM, first compound 1 µM
[5] = second compound 0.1 µM, first compound 0.0316 µM
[6] = second compound 0.1 µM, first compound 0.1 µM
[7] = second compound 0.1 µM, first compound 0.316 µM
[8] = second compound 0.1 µM, first compound 1 µM
[9] = second compound 0.316 µM, first compound 0.0316 µM
[10] = second compound 0.316 µM, first compound 0.1 µM
[11] = second compound 0.316 µM, first compound 0.316 µM
[12] = second compound 0.316 µM, first compound 1 µM
[13] = second compound 1 µM, first compound 0.0316 µM
[14] = second compound 1 µM, first compound 0.1 µM
[15] = second compound 1 µM, first compound 0.316 µM
[16] = second compound 1 µM, first compound 1 µM
[17] = second compound 3.16 µM, first compound 0.0316 µM
[18] = second compound 3.16 µM, first compound 0.1 µM
[19] = second compound 3.16 µM, first compound 0.316 µM
[20] = second compound 3.16 µM, first compound 1 µM
[21] = second compound 10 µM, first compound 0.0316 µM
[22] = second compound 10 µM, first compound 0.1 µM
[23] = second compound 10 µM, first compound 0.316 µM
[24] = second compound 10 µM, first compound 1 µM
[25] = second compound 0.0316 µM, first compound 3.16 µM
[26] = second compound 0.0316 µM, first compound 10 µM
[27] = second compound 0.1 µM, first compound 3.16 µM
[28] = second compound 0.1 µM, first compound 10 µM
[29] = second compound 0.316 µM, first compound 3.16 µM
[30] = second compound 0.316 µM, first compound 10 µM
[31] = second compound 1 µM, first compound 3.16 µM
[32] = second compound 1 µM, first compound 10 µM
[33] = second compound 3.16 µM, first compound 3.16 µM
[34] = second compound 3.16 µM, first compound 10 µM
[35] = second compound 10 µM, first compound 3.16 µM
[36] = second compound 10 µM, first compound 10 µM
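Also: spheroids exposed to compounds for seven days before reading.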

Molecule `CCN1CCN(Cc2ccc(Nc3ncc(F)c(-c4cc(F)c5nc(C)n(C(C)C)c5c4)n3)nc2)CC1` + CC(Nc1ncnc2nc[nH]c12)c1cc2cccc(Cl)c2c(=O)n1-c1ccccc1 has a pIC50 (second compound 0.0316 µM) of less than 6.00, a pIC50 (second compound 0.1 µM) of less than 6.00 and a pIC50 (second compound 0.316 µM) of less than 6.00. For the same molecule, the pIC50 (second compound 1 µM) was less than 6.00, the pIC50 (second compound 3.16 µM) was less than 6.00 and the pIC50 (second compound 10 µM) was less than 6.00. The viability, T/C (second compound 0.0316 µM, first compound 0.00316 µM) was 91.3%, the viability, T/C (second compound 0.0316 µM, first compound 0.01 µM) was 103% and the viability, T/C [1] was 98.8%. For the same molecule, the viability, T/C [2] was 92.9%, the viability, T/C [3] was 100% and the viability, T/C [4] was 79.7%. For the same molecule, the viability, T/C (second compound 0.1 µM, first compound 0.00316 µM) was 93.5%, the viability, T/C (second compound 0.1 µM, first compound 0.01 µM) was 122% and the viability, T/C [5] was 118%. The viability, T/C [6] was 89.5%, the viability, T/C [7] was 84.2% and the viability, T/C [8] was 71.6%. For the same molecule, the viability, T/C (second compound 0.316 µM, first compound 0.00316 µM) was 83.9%, the viability, T/C (second compound 0.316 µM, first compound 0.01 µM) was 76.9% and the viability, T/C [9] was 86%. For the same molecule, the viability, T/C [10] was 84.1%, the viability, T/C [11] was 95.8% and the viability, T/C [12] was 67%. The viability, T/C (second compound 1 µM, first compound 0.00316 µM) was 120%, the viability, T/C (second compound 1 µM, first compound 0.01 µM) was 98% and the viability, T/C [13] was 85.4%. It also gave a viability, T/C [14] of 87.8%, a viability, T/C [15] of 88.7% and a viability, T/C [16] of 74.2%. It also gave a viability, T/C (second compound 3.16 µM, first compound 0.00316 µM) of 90.8%, a viability, T/C (second compound 3.16 µM, first compound 0.01 µM) of 98.8% and a viability, T/C [17] of 94.2%. The viability, T/C [18] was 87.2%, the viability, T/C [19] was 77.8% and the viability, T/C [20] was 59.5%. It also gave a viability, T/C (second compound 10 µM, first compound 0.00316 µM) of 81.5%, a viability, T/C (second compound 10 µM, first compound 0.01 µM) of 76.4% and a viability, T/C [21] of 104%. The viability, T/C [22] was 98.8%, the viability, T/C [23] was 95% and the viability, T/C [24] was 53.6%.

For `Cn1ncc(Cl)c1-c1cc(C(=O)NC(CN)Cc2cccc(F)c2)sc1Cl` (stereo unspecified) + CC(Nc1ncnc2nc[nH]c12)c1cc2cccc(Cl)c2c(=O)n1-c1ccccc1, the pIC50 (second compound 0.0316 µM) was less than 5.00, the pIC50 (second compound 0.1 µM) was less than 5.00 and the pIC50 (second compound 0.316 µM) was less than 5.00. For the same molecule, the pIC50 (second compound 1 µM) was less than 5.00, the pIC50 (second compound 3.16 µM) was less than 5.00 and the pIC50 (second compound 10 µM) was less than 5.00. It also gave a viability, T/C [1] of 97.5%, a viability, T/C [2] of 89.3% and a viability, T/C [3] of 96.3%. The viability, T/C [4] was 91.5%, the viability, T/C [25] was 83.9% and the viability, T/C [26] was 59.2%. It also gave a viability, T/C [5] of 91.1%, a viability, T/C [6] of 93.3% and a viability, T/C [7] of 129%. For the same molecule, the viability, T/C [8] was 91.7%, the viability, T/C [27] was 93.2% and the viability, T/C [28] was 59.8%. It also gave a viability, T/C [9] of 90.6%, a viability, T/C [10] of 122% and a viability, T/C [11] of 104%. It also gave a viability, T/C [12] of 105%, a viability, T/C [29] of 84.2% and a viability, T/C [30] of 65.5%. It also gave a viability, T/C [13] of 99%, a viability, T/C [14] of 115% and a viability, T/C [15] of 106%. It also gave a viability, T/C [16] of 98.1%, a viability, T/C [31] of 77.8% and a viability, T/C [32] of 73.3%. It also gave a viability, T/C [17] of 83.3%, a viability, T/C [18] of 103% and a viability, T/C [19] of 92.5%. It also gave a viability, T/C [20] of 71%, a viability, T/C [33] of 81.8% and a viability, T/C [34] of 61%. For the same molecule, the viability, T/C [21] was 99.6%, the viability, T/C [22] was 99.6% and the viability, T/C [23] was 90.6%. For the same molecule, the viability, T/C [24] was 94.2%, the viability, T/C [35] was 74.4% and the viability, T/C [36] was 70.1%.

Work on `Cn1nccc1Nc1nccc(-c2ccn(C(CO)c3ccc(Cl)c(F)c3)c(=O)c2)n1` (stereo unspecified) + CC(Nc1ncnc2nc[nH]c12)c1cc2cccc(Cl)c2c(=O)n1-c1ccccc1 yielded a pIC50 (second compound 0.0316 µM) of less than 5.00, a pIC50 (second compound 0.1 µM) of less than 5.00 and a pIC50 (second compound 0.316 µM) of less than 5.00. It also gave a pIC50 (second compound 1 µM) of less than 5.00, a pIC50 (second compound 3.16 µM) of less than 5.00 and a pIC50 (second compound 10 µM) of less than 5.00. For the same molecule, the viability, T/C [1] was 107%, the viability, T/C [2] was 91.4% and the viability, T/C [3] was 92%. For the same molecule, the viability, T/C [4] was 115%, the viability, T/C [25] was 101% and the viability, T/C [26] was 78.5%. For the same molecule, the viability, T/C [5] was 76.1%, the viability, T/C [6] was 86.5% and the viability, T/C [7] was 102%. For the same molecule, the viability, T/C [8] was 120%, the viability, T/C [27] was 101% and the viability, T/C [28] was 72.7%. The viability, T/C [9] was 95.2%, the viability, T/C [10] was 85.6% and the viability, T/C [11] was 83.1%. It also gave a viability, T/C [12] of 98.7%, a viability, T/C [29] of 84.2% and a viability, T/C [30] of 71.1%. For the same molecule, the viability, T/C [13] was 99.3%, the viability, T/C [14] was 100% and the viability, T/C [15] was 89.4%. For the same molecule, the viability, T/C [16] was 103%, the viability, T/C [31] was 96.2% and the viability, T/C [32] was 75.7%. It also gave a viability, T/C [17] of 88.2%, a viability, T/C [18] of 80.8% and a viability, T/C [19] of 83.6%. The viability, T/C [20] was 125%, the viability, T/C [33] was 140% and the viability, T/C [34] was 68.4%. It also gave a viability, T/C [21] of 135%, a viability, T/C [22] of 115% and a viability, T/C [23] of 109%. It also gave a viability, T/C [24] of 110%, a viability, T/C [35] of 91.9% and a viability, T/C [36] of 70.5%.
